Assay results taken from patent US20150164910A1, “ANTIVIRAL COMPOUNDS AND METHODS OF USE” (The Regents of the University of Califonia, priority 2012, published 2015).

Experiments:
CVB3-H3 = experiment: Plaque reduction assay, CVB3-H3 in HeLa-RW cells; format: cell-based, coxsackievirus B3; details: compound added 30 min before infection, CVB3-H3 MOI 1, HeLa-RW, 6 hours; log10(titer with DMSO only/titer with inhibitor)
[1] = system: eGFP-expressing recombinant CVB3; format: cell-based, coxsackievirus B3; details: eGFP-CVB3 m.o.i=1, compound added at time of infection, 6 hr post infection; 1-(% eGFP+ cells with compound/% with DMSO only); also: test concentration or dose not given here

## CC1Oc2ccc(NC(=O)c3cc(C4CC4)nc4c3cnn4C(C)C)cc2NC1=O (stereo not shown) [Compound 13, 6-Cyclopropyl-1-isopropyl-N-(2-methyl-3-oxo-3,4-dihydro-2H-1,4-benzoxazin-6-yl)-1H-pyrazolo [3,4-b]pyridine-4-carboxamide]
CVB3-H3
  Log10 reduction of virus titer: 4.2
[1]
  Inhibition of infected cells: 100%

## CC(=O)c1c(C)nc2ccc(Cl)cc2c1-c1ccccc1 [Compound 31, 1-(6-Chloro-2-methyl-4-phenyl-3-quinolinyl)ethanone]
CVB3-H3
  Log10 reduction of virus titer: 3.8
[1]
  Inhibition of infected cells: 94.5%

## COc1ccc(NC(=O)c2nn(Cc3ccccc3)c(=O)c3ccccc23)cn1 [Compound 64, 3-Benzyl-N-(6-methoxy-3-pyridinyl)-4-oxo-3,4-dihydro-1-phthalazine-carboxamide]
CVB3-H3
  Log10 reduction of virus titer: 4.2
[1]
  Inhibition of infected cells: 100%

## Cl.O[C@@H]1[C@@H](O)C=C2CCN3Cc4cc5c(cc4[C@H]1C23)OCO5 (stereo partly drawn) [Compound 73, (1S,2S,12bS)-2,4,5,7,12b,12c-Hexahydro-1H-[1,3]dioxolo[4,5-j]pyrrolo[3,2,1-de] phenanthridine-1,2-diol hydrochloride (1:1), reference compound]
CVB3-H3
  Log10 reduction of virus titer: 2.8
[1]
  Inhibition of infected cells: 100%

## CCC(C)(C)Nc1c(-c2ccc(OC)c(CN3CCOCC3)c2)nc2cnccn12 [Compound 60, 2-[4-Methoxy-3-(4-morpholinylmethyl)phenyl]-N-(2-methyl-2-butanyl) imidazo[1,2-a]pyrazin-3-amine]
CVB3-H3
  Log10 reduction of virus titer: 1.8
[1]
  Inhibition of infected cells: 100%

## COc1ccc(CCC2CCN(Cc3cc(=O)n4ccccc4n3)CC2)cc1 [Compound 52, 2-({4-[2-(4-Methoxyphenyl)ethyl]-1-piperidinyl}methyl)-4H-pyrido[1,2-a]pyrimidin-4-one]
CVB3-H3
  Log10 reduction of virus titer: 0.0
[1]
  Inhibition of infected cells: 57.7%

## c1ccc2[nH]c(CN3CCCC3)nc2c1 [Compound 40, 2-(1-Pyrrolidinylmethyl)-1H-benzimidazole]
CVB3-H3
  Log10 reduction of virus titer: 4.0
[1]
  Inhibition of infected cells: 100%

## O=C(c1ccco1)N(Cc1ccccc1)Cc1ccccn1 [Compound 58, N-Benzyl-N-(2-pyridinylmethyl)-2-furamide]
CVB3-H3
  Log10 reduction of virus titer: 2.4
[1]
  Inhibition of infected cells: 91.7%

## CS(=O)(=O)c1ccc(NC(=O)c2cc(-c3ccc(F)cc3)nc3ccccc23)cc1 [Compound 28, 2-(4-Fluorophenyl)-N-[4-(methylsulfonyl)phenyl]-4-quinolinecarboxamide]
CVB3-H3
  Log10 reduction of virus titer: 4.5
[1]
  Inhibition of infected cells: 99.6%

## COc1ccc(/N=c2\oc3ccccc3cc2C(=O)NCC2CCCO2)cc1 (stereo not shown) [Compound 62, (2Z)-2-[(4-Methoxyphenyl)imino]-N-(tetrahydro-2-furanylmethyl)-2H-chromene-3-carboxamide]
CVB3-H3
  Log10 reduction of virus titer: 1.5
[1]
  Inhibition of infected cells: 90.4%

## CCS(=O)(=O)c1ccc(NC(=O)c2cc(-c3ccccc3)nc3ccccc23)cc1 [Compound 27, N-[4-(Ethylsulfonyl)phenyl]-2-phenyl-4-quinoline-carboxamide]
CVB3-H3
  Log10 reduction of virus titer: 3.4
[1]
  Inhibition of infected cells: 89.6%

## O=C(CCCc1nc(-c2ccccc2)no1)N1CCN(C2CCCCC2)C(=O)C1 [Compound 69, 1-Cyclohexyl-4-[4-(3-phenyl-1,2,4-oxadiazol-5-yl)butanoyl]-2-piperazinone]
CVB3-H3
  Log10 reduction of virus titer: 2.0
[1]
  Inhibition of infected cells: 96.5%

## O=C(Nc1nc(CN2CCOCC2)cs1)c1cc(-c2ccc(Cl)s2)nc2ccccc12 [Compound 34, 2-(5-Chloro-2-thienyl)-N-[4-(4-morpholinylmethyl)-1,3-thiazol-2-yl]-4-quinoline-carboxamide]
CVB3-H3
  Log10 reduction of virus titer: 3.5
[1]
  Inhibition of infected cells: 94.4%

## CC(C)n1ncc2c(C(=O)Nc3cccc(-c4nnc5n4CCCCC5)c3)cc(C3CC3)nc21 [Compound 14, 6-Cyclopropyl-1-isopropyl-N-[3-(6,7,8,9-tetrahydro-5H-[1,2,4]triazolo [4,3-a]azepin-3-yl)phenyl]-1H-pyrazolo [3,4-b]pyridine-4-carboxamide]
CVB3-H3
  Log10 reduction of virus titer: 3.3
[1]
  Inhibition of infected cells: 100%

## Cl.OCCN1CCN(CC/C=C2/c3ccccc3Sc3ccc(Cl)cc32)CC1 [Compound 71, 2-[4-[3-(2-chlorothioxanthen-9-ylidene)propyl]piperazin-1-yl]ethanol hydrochloride, reference compound]
CVB3-H3
  Log10 reduction of virus titer: 4.2
[1]
  Inhibition of infected cells: 99.1%

## CCCCOc1cc(C(=O)NCCN(CC)CC)c2ccccc2n1 [Compound 35, 2-Butoxy-N-[2-(diethylamino)ethyl]-4-quinoline-carboxamide, reference compound]
[1]
  Inhibition of infected cells: 100%

## Cc1nc(-c2cccc(NS(=O)(=O)c3ccc4c(c3)CCC(=O)N4)c2)cs1 [Compound 38, N-[3-(2-Methyl-1,3-thiazol-4-yl)phenyl]-2-oxo-1,2,3,4-tetrahydro-6-quinoline-sulfonamide]
CVB3-H3
  Log10 reduction of virus titer: 0.9
[1]
  Inhibition of infected cells: 59.1%

## CC(C)c1cc(C(=O)Nc2cccc(N3CCCC3=O)c2)c2cnn(C(C)C)c2n1 [Compound 18, 1,6-Diisopropyl-N-[3-(2-oxo-1-pyrrolidinyl)phenyl]-1H-pyrazolo[3,4-b]pyridine-4-carboxamide]
CVB3-H3
  Log10 reduction of virus titer: 4.0
[1]
  Inhibition of infected cells: 97.9%

## COc1ccc(-c2nc(C)c(C(=O)Nc3cccc(-c4nnc5n4CCCCC5)c3)s2)cc1 [Compound 61, 2-(4-Methoxyphenyl)-4-methyl-N-[3-(6,7,8,9-tetrahydro-5H-[1,2,4]triazolo [4,3-a]azepin-3-yl)phenyl]-1,3-thiazole-5-carboxamide]
CVB3-H3
  Log10 reduction of virus titer: 1.8
[1]
  Inhibition of infected cells: 96.0%

## Cn1ccc(NC(=O)c2cc(-c3cccs3)nc3ccccc23)n1 [Compound 32, N-(1-Methyl-1H-pyrazol-3-yl)-2-(2-thienyl)-4-quinoline-carboxamide]
CVB3-H3
  Log10 reduction of virus titer: 4.0
[1]
  Inhibition of infected cells: 100%

## Br.COc1ccc(C(=O)Cn2c(=N)n(Cc3ccc(C)cc3)c3ccccc32)cc1 [Compound 39, 1-[2-(4-Methoxyphenyl)-2-oxoethyl]-3-(4-methylbenzyl)-1,3-dihydro-2H-benzimidazol-2-iminium bromide]
CVB3-H3
  Log10 reduction of virus titer: 0.3
[1]
  Inhibition of infected cells: 100%

## O=C(O)c1cccc(NS(=O)(=O)c2ccc(-c3ccccc3)cc2)c1 [Compound 56, 3-[(4-Biphenylylsulfonyl)amino] benzoic acid]
CVB3-H3
  Log10 reduction of virus titer: 0.3
[1]
  Inhibition of infected cells: 85.4%

## O=C(N/N=C/c1ccc(O)cc1)c1cc(-c2ccccc2)nc2ccccc12 [Compound 29, N′-[(E)-(4-Hydroxyphenyl)methylene]-2-phenyl-4-quinoline-carbohydrazide]
CVB3-H3
  Log10 reduction of virus titer: 3.8
[1]
  Inhibition of infected cells: 100%

## CCOc1ccc(C(=O)N2CCC(C(=O)c3ccc4c(c3)OCCO4)CC2)cc1 [Compound 44, 2,3-Dihydro-1,4-benzodioxin-6-yl[1-(4-ethoxybenzoyl)-4-piperidinyl] methanone]
CVB3-H3
  Log10 reduction of virus titer: 0.2
[1]
  Inhibition of infected cells: 84.9%

## Cc1ccc(NC(=O)c2cc(C3CC3)nc3c2cnn3C(C)C)cc1S(N)(=O)=O [Compound 11, 6-Cyclopropyl-1-isopropyl-N-(4-methyl-3-sulfamoylphenyl)-1H-pyrazolo[3,4-b]pyridine-4-carboxamide]
CVB3-H3
  Log10 reduction of virus titer: 4.1
[1]
  Inhibition of infected cells: 99.6%

## NC1=Nc2nc3ccccc3n2C(c2ccc3ccccc3c2)N1 (stereo not shown) [Compound 67, 4-(2-Naphthyl)-1,4-dihydro[1,3,5] triazino[1,2-a]benzimidazol-2-amine]
CVB3-H3
  Log10 reduction of virus titer: 1.9
[1]
  Inhibition of infected cells: 67.7%

## O=C(N/N=C1/c2ccccc2-c2nc3ccccc3nc21)c1cccnc1 [Compound 51, N′-[(11Z)-11H-Indeno[1,2-b]quinoxalin-11-ylidene] nicotinohydrazide]
CVB3-H3
  Log10 reduction of virus titer: 0.1
[1]
  Inhibition of infected cells: 1.6%

## COc1ccc2nc(C)n3c4ccccc4c(NC(C)=O)c3c2c1 [Compound 49, N-(2-Methoxy-6-methylindolo[1,2-c]quinazolin-12-yl)acetamide]
CVB3-H3
  Log10 reduction of virus titer: 1.0
[1]
  Inhibition of infected cells: 17.2%

## CCCSc1nc2ccccc2c(=O)n1Cc1ccccc1 [Compound 47, 3-Benzyl-2-(propylsulfanyl)-4(3H)-quinazolinone]
CVB3-H3
  Log10 reduction of virus titer: 4.1
[1]
  Inhibition of infected cells: 100%

## Cc1ccc([S+]([O-])Nc2cccc(C(=O)O)c2)cc1 (stereo not shown) [Compound 55, 3-{[(4-Methylphenyl)sulfinyl]amino} benzoic acid]
CVB3-H3
  Log10 reduction of virus titer: 2.5
[1]
  Inhibition of infected cells: 98.4%

## CC(C)n1ncc2c(C(=O)Nc3cccc(-c4nnco4)c3)cc(-c3ccccc3)nc21 [Compound 17, 1-Isopropyl-N-[3-(1,3,4-oxadiazol-2-yl)phenyl]-6-phenyl-1H-pyrazolo[3,4-b]pyridine-4-carboxamide]
CVB3-H3
  Log10 reduction of virus titer: 4.3
[1]
  Inhibition of infected cells: 99.6%

## Brc1ccc(-c2csc3ncnc(Sc4nnc(C5CC5)o4)c23)cc1 [Compound 53, 5-(4-Bromophenyl)-4-[(5-cyclopropyl-1,3,4-oxadiazol-2-yl)sulfanyl]thieno [2,3-d]pyrimidine]
CVB3-H3
  Log10 reduction of virus titer: 1.8
[1]
  Inhibition of infected cells: 100%

## CCn1ncc2c(C(=O)Nc3ccc(C#N)cc3)cc(-c3cccs3)nc21 [Compound 20, N-(4-Cyanophenyl)-1-ethyl-6-(2-thienyl)-1H-pyrazolo [3,4-b]pyridine-4-carboxamide]
CVB3-H3
  Log10 reduction of virus titer: 1.9
[1]
  Inhibition of infected cells: 99.6%

## Cc1ccc(S(C)(=O)=O)cc1NC(=O)c1cc(C2CC2)nc2c1cnn2C(C)C [Compound 12, 6-Cyclopropyl-1-isopropyl-N-[2-methyl-5-(methylsulfonyl)phenyl]-1H-pyrazolo[3,4-b] pyridine-4-carboxamide]
CVB3-H3
  Log10 reduction of virus titer: 4.2
[1]
  Inhibition of infected cells: 100%
